We go through 5 compounds from US20090197906A1, “REVERSION OF MALIGNANT PHENOTYPE WITH 9-HYDROXY ELLIPTICINE DERIVATIVES” (priority 2006, published 2009).

pIC50: −log10 of the molar value.

Assay [1] has as its system B16BL6 melanoma cell line. The assay can be described thus: MTT cell viability, combination with retinoids. The assay is classed as cell-based. Particulars: 10 nM retinoid only, 3 days. The protocol:
The ex vivo cell viability inhibition by BA016DD537 in the presence of the retinoids 13CRA and ATRA was tested against B16BL6 melanoma cell line using the 3-(4,5 dimethylthiazol-2-yl)-2,5-diphenyl-2H-tetrazolium bromide (MTT) calorimetric assay.
(§1) About 1000 cells were seeded in a 96-well culture plate 24 hours before adding increasing concentrations of BA016DD537, from 1 pM to 100 pM, in the absence or in the presence of 10 nM of retinoids. The plate was incubated at 37° C. for 3 days. 10 μl MTT stock solution (5 mg/ml in phosphate buffer saline) was added to 90 μl of complete medium in each well, the incubation was continued for 3 h at 37° C. 100 μl of lysis buffer (20% sodium dodecyl sulfate, 10 mM HCl, 1×PBS) was added to each well, and the plate was incubated overnight. The absorbance was determined using an Integrated EIA Management System (Labsystem) at a wavelength of 570 nm.

The test system of assay [2] is actin in NIH 3T3 EF extract. The assay can be described thus: fluorescence anisotropy assay of actin dynamics in cell extract. The assay is classed as biochemical. Particulars: for effect on actin-F elongation rate constant and actin-F steady state value: NIH 3T3 EF cytosolic fractions; for k (rate constant of F-actin elongation) / Δ mA (anisotropy enhancement, steady state F-actin): malignant NIH 3T3 EF extract, compound at 200 nM. The protocol:
Actin dynamics is known to be impaired in tumor cells with a subsequent decrease of F-actin to G-actin ratio. Actin dynamics has been quantified in tumor cell extracts using the fluorescence anisotropy assay which gains access to rate constant of F-actin elongation (k) and steady state concentration of F-actin (Δ mA).
All reactions were carried out at 22° C. and fluorescence anisotropy signal was recovered at 520 nm with excitation at 490 nm in a Beacon 2000 (Panvera). Alexa 488 actin (Molecular Probes) was centrifuged at 35 000 rpm for 2 h at 4° C. to sediment residual actin polymers in a Beckman L5-50B ultracentrifuge. […] 80% of the supernatant was withdrawn; the concentration was defined through fluorescence measurements (excitation at 490 nm and signal recovering at 520 nm). The ultracentrifuged actin concentration was calculated using the non ultracentrifuged Alexa 488 actin as a standard. The supernatant was aliquoted, frozen in liquid nitrogen and stored at −80° C.
Before experiment, an aliquot of ultracentrifuged Alexa 488 actin was diluted to a concentration of […] in G buffer (5 mM Tris pH 8.1, 2 mM CaCl2, 0.2 mM DTT, 0.2 mM ATP). 3 μl of diluted Alexa 488 actin was mixed in 168 μl of G buffer and actin monomers anisotropy was measured before the addition of 4 μl of polymerisation buffer (2.5 M KCl, 50 mM MgCl2, 25 mM ATP), 5 μl of G buffer in the presence or in the absence of the chemical molecule and 20 μl cellular extract of normal NIH 3T3 cells or malignant NIH 3T3 EF cells at 2 mg/ml. The final concentration of Alexa 488 actin was 4 nM. The ratio of unlabelled to labelled actin was about 140/4 nM. Measurements were made each 10 sec for 200 sec. Actin monomers anisotropy value was subtracted, yielding the anisotropy enhancement (Δ mA). The data were fitted with the equation Y=Ymax. [1−exp(−K.X)]. The curves start at zero and ascend to Ymax that corresponds to the steady state anisotropy value (Δ mA eq), with a rate constant K. Y is anisotropy values of which monomers anisotropy is subtracted and X is the time.

The subject of another assay is Melanoma B16 cells. The assay can be described thus: antitumor activity, i.p. grafted B16 melanoma, survival. The assay is classed as in vivo, B6D2F1 mice. As to the method:
Antitumor activity against B16 melanoma can be assessed in mice using i.p. graft of malignant cells followed by i.p. treatment. This type of protocol which by-pass various biodisponibility parameters gives information roughly on the maximal antitumor activity which can be expected for a given tumor.
Melanoma B16 cells (4×10^5) were injected in B6D2F1 mice using i.p. route at J0. Drugs, dissolved in sterile distilled water (0.5 ml) were injected daily using as well i.p. route from J1 to J9 at various concentrations. Control mice received distilled water only according the same protocol.
Treated and control mice were counted daily. TIC (mean survival of treated mice/mean survival of control mice) was calculated at J9.

For assay [3], the system named is NIH 3T3 EF cells. The assay can be described thus: wound healing assay (cell motility). Type of assay: cell-based. The following applies: non cytotoxic concentrations. As to the method:
Wound healing assay was performed to evaluate the effect of BA016DD537 on motility of malignant NIH 3T3 EF cells and melanoma cell lines B16F10 and B16BL6. All the cells were incubated at 37° C. in a humidified 5% CO2 atmosphere. About 100 000-200 000 cells were seeded in a 6-well culture plate and BA016DD537, at the different concentrations, was added 24 hours later. Cells were grown for 3 days to confluence about 90-95% and small scratch-wounds (about 200 μm-1 mm width) were made with a pipette tip. Cell debris were removed, then the cultures were incubated in complete medium for 10 h in the presence of the same concentration of BA016DD537. Then, the cells were fixed for 10 min in PBS containing 3.7% formaldehyde at 4° C.

Assay [4] relates to NIH 3T3 EF cells. The assay can be described thus: F-actin network rescue, FITC-phalloidin fluorescence microscopy. The assay is classed as cell-based. The following applies: non cytotoxic concentrations (100 nM and 200 nM), three days. The protocol: Malignant NIH 3T3 EF cells were seeded onto glass cover slips at a density of 2000 cells per cm^2. The next day, BA016DD537 was applied to NIH 3T3 EF cells at various non cytotoxic concentrations (100 nM and 200 nM). Three days later, cells were fixed for 10 min in PBS containing 3.7% formaldehyde at 4° C. before examination with a fluorescence microscope. The formaldehyde solution was neutralized with 50 mM NH4Cl. Extraction was carried out for 4 min with 0.4% Triton X-100 in PBS. Cells were incubated for 1 h with blocking buffer (3% bovine serum albumin in PBS) and then for 20 min with FITC-phalloidin (Sigma) at room temperature. Cover slips were mounted in Vectashieldk (Zymed) and observed through a fluorescence microscope (Nikon).

Assay [5] concerns B16F10. The assay can be described thus: MTT cell proliferation assay. Type of assay: cell-based, murine. Particulars: Mus musculus, B16-F10; B16F10 (Example 11); read-out: IC50 (MTT Test-72 h). The protocol:
Growth studies were performed using the [3-(4,5 dimethylthiazol-2-yl)-2,5-diphenyl-2H-tetrazolium bromide] (Sigma) calorimetric assay.
as §1, with “1500 to 5000 cells, according to the cell line,” for “1000 cells”, “BA016DD537” for “BA016DD537, from 1 pM to 100 pM, in the absence”, “BA016FZ539.” for “in the presence of 10 nM of retinoids.”, “(10%” for “(20%”, “1% HCl 1N; pH 4.7)” for “10 mM HCl, 1×PBS)”, “nm. The proliferation rates were calculated from the OD readings using the untreated cells as 100%.” for “nm.”
(§2) Growth studies were performed using both MTT and SRB calorimetric assay (Sigma). About 1500 B16F10 or 3000 pancreatic cells (MIA PaCa-2 and PANC1) were seeded in a 96-well culture plate before adding increasing concentrations of monomesylate or bimesylate.
(§3) The plates were incubated at 37° C. for 3 days and then were treated depending on SRB or MTT protocols (see material and methods).
(§4) In these two cases, the proliferation rates were calculated from the OD readings using the untreated cells as 100%.

The next assay concerns PANC-1. The assay can be described thus: SRB (sulforhodamine B) cell proliferation assay. The following applies: Homo sapiens; PANC-1 (Example 11); read-out: IC50 (SRB Test-72 h). Type of assay: cell-based, human. As to the method: (§5) After an incubation period, cell monolayers are fixed with 10% (wt/vol) trichloroacetic acid and stained for 30 min, after which the excess dye is removed by washing repeatedly with 1% (vol/vol) acetic acid. The protein-bound dye is dissolved in 10 mM Tris base solution for optic density determination (OD) at 510 nm using a microplate reader.
(§6) The proliferation rates were calculated from the OD readings using the untreated cells as 100%.
(§7) The effects BA016FZ539 on the growth of MIA PaCa-2 and PANC-1 pancreatic cells were tested over a range of concentrations from 500 μM to 0.16 μM and measured by using the SRB calorimetric assay.
(§8) About 5000 MIA PaCa-2 or PANC-1 cells were seeded in a 96-well culture plate while adding increasing concentrations of BA016FZ539.
as §2, §3, §4

The next assay has as its system Mia Paca-2. The assay can be described thus: SRB (sulforhodamine B) cell proliferation assay. Type of assay: cell-based, human. The following applies: Homo sapiens; Mia Paca-2 (Example 11); read-out: IC50 (SRB Test-72 h). The protocol:
as §5, §6, §7, §8, §2, §3, §4

The test system of assay [6] is B16F10. The assay can be described thus: SRB (sulforhodamine B) cell proliferation assay. Type of assay: cell-based, murine. Particulars: Mus musculus, B16-F10; B16F10 (Example 11); read-out: IC50 (SRB Test-72 h). The protocol: as §2, §3, §4
The subject of assay [7] is B16F10. The assay can be described thus: cloning assay in methylcellulose (colony formation). The following applies: Mus musculus, B16-F10, 216 h; B16F10, clones counted after 9 days (Example 11); read-out: B16F10 Inhibition of colony formation IC50. Type of assay: cell-based, murine. As to the method: Cells were embedded in complete culture medium supplemented with 0.8% methylcellulose (Methocel MC4000, Sigma), seeded in triplicate into 35-mm dishes (Greiner Bio-one Ref 627102, Dominique Dutscher) and incubated at 37° C. in a humidified 5% CO2 atmosphere. The number of cells seeded was 1000 cells per dish. After one to three weeks, according to cell lines, macroscopic clones were counted.
Cells were embedded in complete culture medium supplemented with 0.8% methyl-cellulose (Methocel MC4000, Sigma), seeded in triplicate into 35-mm dishes and incubated at 37° C. in a humidified 5% CO2 atmosphere. The number of cells seeded was 1000 cells per dish. After 9 days, macroscopic clones of murine melanoma cell line B16F10 were counted.

In the case of `CC1=C(/C=C/C(C)=C/C=C/C(C)=C\C(=O)O)C(C)(C)CCC1` [13CRA, 13-cis-retinoic acid, reference compound], the “cell viability inhibition (MTT)” value in [1] is on record as “No cell viability inhibition”.
Take `CC1=C(/C=C/C(C)=C/C=C/C(C)=C/C(=O)O)C(C)(C)CCC1` [ATRA, all-transretinoic acid, reference compound]: the “cell viability inhibition (MTT)” value in [1] was “No cell viability inhibition”.
For the compound `Cc1c2cc[n+](C)cc2c(C)c2c1[nH]c1ccc(O)cc12` [BA016CA77, 9-hydroxy-2(beta-methyl)-ellipticinium acetate], in assay [2], the “effect on actin-F elongation rate constant and actin-F steady state value” was “do not increase the actin-F elongation rate constant and the actin-F steady state value”; the “k (rate constant of F-actin elongation)” value came out at 0.0416 s⁻¹; the “Δ mA (anisotropy enhancement, steady state F-actin)” value is reported as 38.33. Also, the “T/C (%) (mean survival of treated mice/mean survival of control mice)” value with Melanoma B16 cells (0.125 mg/kg/inj. i.p. daily J1 to J9) is listed as 121%. For the same compound, the “T/C (%) (mean survival of treated mice/mean survival of control mice)” value with Melanoma B16 cells (0.25 mg/kg/inj. i.p. daily J1 to J9) is given as 122%. The “T/C (%) (mean survival of treated mice/mean survival of control mice)” value in the assay with Melanoma B16 cells (0.5 mg/kg/inj. i.p. daily J1 to J9) was found to be 58%. Also, the “antitumor activity against B16 melanoma (T/C>125% = significant)” value in the assay on Melanoma B16 cells (i.p. graft, i.p. treatment) is recorded as “no significant antitumor activity”. Further, the “migration of treated malignant cells into the wound” value in the assay with NIH 3T3 EF cells [3] is on record as “migrate in the same way as non treated malignant cells”. Further, the “rebuilding of actin network / morphology” value with NIH 3T3 EF cells [4] is recorded as “neither 9-hydroxy-2-ethyl)-ellipticinium acetate, nor 9-hydroxy-2(methyl)-ellipticinium acetate (Celiptium) were found active”.
For `CC(=O)[O-].CC[n+]1ccc2c(C)c3[nH]c4ccc(O)cc4c3c(C)c2c1` [BA016CA107, 9-hydroxy-2(beta-ethyl)-ellipticinium acetate], in assay [2], the “effect on actin-F elongation rate constant and actin-F steady state value” is “do not increase the actin-F elongation rate constant and the actin-F steady state value”; the “k (rate constant of F-actin elongation)” value came out at 0.0280 s⁻¹; the “Δ mA (anisotropy enhancement, steady state F-actin)” value was determined as 42.14. Further, in the assay with NIH 3T3 EF cells [3], the “migration of treated malignant cells into the wound” value is on record as “migrate in the same way as non treated malignant cells”. Also, in the assay on NIH 3T3 EF cells [4], the “rebuilding of actin network / morphology” value was “neither 9-hydroxy-2-ethyl)-ellipticinium acetate, nor 9-hydroxy-2(methyl)-ellipticinium acetate (Celiptium) were found active”.
Consider `Cc1c2cc[n+](CCN3CCCCC3)cc2c(C)c2c1[nH]c1ccc(O)cc12` [Bimesylate], for which the pIC50 in the assay on B16F10 [5] was 5.55; in the assay on PANC-1, 4.42; in the assay with Mia Paca-2, 5.60; in the assay with B16F10 [6] it was 5.74; in the assay on B16F10 [7], 7.68.
